COC(=O)c1cc(O)c(O)c(O)c1
solubility (mole fraction)
Details | in acetone | in ethanol | in ethyl acetate | in isobutanol | in isopropanol | in methanol | in methyl acetate | in n-butanol | in n-propanol
293.15 K | 0.0929 | 0.0706 | 0.0217 | 0.02 | 0.0505 | 0.0812 | 0.0266 | 0.0354 | 0.0425
298.15 K | 0.099 | 0.0758 | 0.0247 | 0.0231 | 0.0556 | 0.0864 | 0.0305 | 0.0398 | 0.0475
303.15 K | 0.106 | 0.0819 | 0.0283 | 0.0266 | 0.0625 | 0.0931 | 0.0348 | 0.0446 | 0.053
308.15 K | 0.113 | 0.0881 | 0.0324 | 0.0306 | 0.0677 | 0.1 | 0.0396 | 0.0499 | 0.0582
313.15 K | 0.121 | 0.0955 | 0.0372 | 0.0351 | 0.0747 | 0.107 | 0.045 | 0.0557 | 0.0646
318.15 K | 0.13 | 0.103 | 0.0425 | 0.0403 | 0.0819 | 0.115 | 0.0509 | 0.0621 | 0.0713
323.15 K | 0.139 | 0.11 | 0.0487 | 0.0462 | 0.0902 | 0.123 | 0.0573 | 0.069 | 0.0783
328.15 K | 0.15 | 0.119 | 0.055 | 0.0528 | 0.0991 | 0.134 | 0.0643 | 0.0766 | 0.0864
333.15 K | 0.161 | 0.128 | 0.0621 | 0.0603 | 0.107 | 0.143 | 0.0718 | 0.0847 | 0.0957

Reference: BigSolDB 2.1
